Data: paper PMC5909127, “Optimization of a “bump-and-hole” approach to allele-selective BET bromodomain inhibition” (Chemical Science, 2018)

Legend:
[1] = target: T1, BRD4 BD1 L/V (Homo sapiens, UniProt O60885, L94V); experiment: competitive AlphaLISA; type: binding; settings: total compound concentration
[2] = system: GFP-BRD4 L/V constructs with NF-κB-RE/luc2P reporter in HEK293T cells; experiment: NF-κB luciferase assay; type: cell-based, human; settings: 1 µM, inhibiting either individual BD of BRD4
Procedure: To provide additional functional insights into the individual roles of BD1 vs. BD2 beyond chromatin binding, a luciferase assay was developed to monitor the expression of NF-κB target genes, inspired by work of Zou et al.[45] […] This luciferase induction was maintained with L/V mutations (but not L/A), consistent again with more WT-like functionality of L/V compared to L/A (Fig. 9A).
12 – NF-κB Luciferase Assay
Luciferase experiments were performed in human HEK293T cells seeded in a 24-well plate at 100 000 cells in […]
pBABE NF-κB-RE/luc2P reporter plasmid. Cells were transfected using Lipofectamine™ LTX (Invitrogen) with PLUS™ reagent, with each well receiving 0.5 µg of each plasmid, 2.5 µl LTX and 0.5 µl PLUS reagent. The next day cells were treated with compounds, giving a final concentration of 1 µM compound and 0.01% DMSO. 6 hours later cells were washed with PBS, lysed with passive lysis buffer (Promega) and stored at -20°C.
Luciferase activity was measured suing the Promega luciferase assay. In a black 384-well plate 3µl of clarified lysate was mixed with 15µl luciferase assay reagent and after 15 minutes luminescence was measured in a Pherastar FS. […]
NMR spectra were recorded on a Bruker 500 Ultrashield or a Bruker Ascend 400. […] High Resolution Mass Spectra (HRMS) were recorded on a Bruker micrOTOF. […]

[3] = target: T2, BRD4 BD1 WT (Homo sapiens, UniProt O60885); experiment: ITC; type: binding
[4] = target: T1, BRD4 BD1 L/V; experiment: ITC; type: binding; settings: total compound concentration
[5] = target: T2, BRD4 BD1 WT; experiment: competitive AlphaLISA; type: binding; settings: pIC50 BRD4 BD1 WT, separated enantiomers test; total compound concentration

Q: Which results are given for `CC[C@@H](C(=O)OC)[C@@H]1N=C(c2ccc(Cl)cc2)c2ccc(OC)cc2-n2c(C)nnc21` (relative stereo) [(2R,3S)-8]?
A: ΔpIC50 BRD4 BD1 ([1]; L/V minus WT): 1.8; IC50 ([1]; pIC50 BRD4 BD1 L/V, separated enantiomers test): 1260 nM; effect on NF-κB signalling [2]: strongly impacted on NF-κB signalling; Kd [3]: > 60 µM; N BRD4 BD1 L/V ([4]; ITC stoichiometry): 0.85 ±0.01; ΔH BRD4 BD1 L/V ([4]; ITC): -6.5 ± 0.1 kcal/mol; Kd ([4]; Kd BRD4 BD1 L/V, ITC of separated enantiomers and racemates): 440 ± 50 nM; IC50 [5]: 79.4 µM
